Assay results taken from US7763273B2, “Method for reducing methane production emanating from the digestive activities of an animal” (DSM IP Assets B.V., priority 2002, dated 2010).

Test system: strained rumen fluids
Experiment: In vitro incubation of sheep rumen fluid with ground diet: formation of methane and VFA
Format: cell-based
Parameters: Methane production / Total VFA: unit not given here
Settings: for Effect on the formation of VFA (in words) / Effect on the formation of methane (in words): in vitro, versus control
Method: The efficacy of some essential oil compounds obtainable from plants was tested regarding their influence on the formation of methane and VFA in an in vitro system.
According to the test 200 mg of a ground diet, containing 50% hay, 30% barley, 9.5% molasses, 10% fishmeal and 0.5% vitamins, was added to wheaton bottles. To a triplicate of bottles containing the diet, 0.6 ml of a dissolution of one of the essential oil compounds mentioned in the table below, into propylene glycol was added to each bottle.
Three sheep were fed on the ground diet and strained rumen fluids in amounts of 500 ml were mixed with 1000 ml of Colemans Simplex buffer. The buffer had the following composition.
30 ml of the combined rumen fluid and the buffer were then introduced into the bottles, and their contents were incubated under CO2 at 39° C. for 24 hours. The methane production and the total amount of VFA was then measured. […]

[1] = 0.6 ml dissolution in propylene glycol per bottle, 200 mg diet, 30 ml rumen fluid/buffer, under CO2, 39° C., 24 hours

Question: Which “Effect on the formation of VFA (in words)” value (“Effect … of VFA (in words)” below) does the source give for `c1ccc2ncccc2c1` [Quinoline] here?
Answer: The value was “promoting effect”.

Question: And the “Effect on the formation of methane (in words)” value (“Effect … of methane (in words)” below)?
Answer: The value was “methane-reducing effect”.

Question: For Vanilla, which Methane production [1] is on record?
Answer: Its Methane production is 1055.

Question: And the “Total VFA” value [1]?
Answer: Its value is 1300.

Question: And the “Effect … of VFA (in words)” value?
Answer: The value was “promoting effect”.

Question: What about the “Effect … of methane (in words)” value of the same molecule?
Answer: Its value is “methane-reducing effect”.

Question: How did the “Effect … of VFA (in words)” value turn out when `Cc1ccc(C(C)C)c(O)c1` [Thymol] was run?
Answer: The value was “notable reducing effect”.

Question: And the “Effect … of methane (in words)” value?
Answer: The value was “strong methane-reducing effect”.
